The results in this text go back to patent US10092574B2, “Inhibitors of polynucleotide repeat-associated RNA foci and uses thereof” (VALORISATION-RECHERCHE, LIMITED PARTNERSHIP, priority 2013, dated 2018).

“Also recorded” adds a separate entry of the source.

Holding throughout (assay type): cell-based, human
Series [1] concerns CUGBP1. Briefly: Western blot of CUGBP1 protein levels in myoblasts. To be noted: DM1 myoblasts, 20 μM, 7 days (FIG. 7). As for the experimental part: Human myoblasts were obtained from the Myosix institute associated with the Association Frangaise contre les Myopathies (AFM). Five primary myoblast lines were obtained as controls, and one line from a DM1 patient with a 3.8 Kb CTG triplet amplification corresponding to approximately 1250 CTG repeats. The human myoblasts are cultivated in HAM-F10 media (SIGMA N6635) with 15% FBS, 1% chick embryo extract, and 390 ng/ml of dexamethasone. One day before adding compounds, 2×10^5 cells were plated in 100 mm plates (for CUGBP1 western blot or RT-PCR alternative splicing assay) or 2×10^4 cells/well are seeded in 12-well plates containing 12 mm round glass coverslips (for FISH to detect RNA foci). One day after plating, media is replaced with fresh media containing the compounds at the desired concentration in this manner: the media is put in a screw-cap tube and heated at 37° C. The 20 mM compound stock in 100% DMSO is pipetted directly into the media and the tube is mixed well by inversion and gentle vortexing, and immediately overlayed on the cells. Pure DMSO is used for the control cells. Final concentrations on myoblasts are never higher than 0.5%. This procedure is repeated twice during the seven days of treatment, the media is thus replaced with fresh media containing compound every 2-3 days. Cells are collected or fixed for FISH after one week.
For Western blots, CUGBP1 was detected with the 3B1-3D11 monoclonal antibody (mAb) (SIGMA C5112) and GAPDH was detected with the 6C5 mAb (Millipore MAB374). The enhanced chemiluminescence signal (ECL) was acquired and quantified with the ChemiDoc™ MP imaging system (Bio-Rad). For alternative splicing assays, total RNA was collected with Trizol™ (Invitrogen), and 1 μg was used for reverse transcription with random primers with the RevertAid™ H Minus M-MuL RT (Fermentas) according to manufacturer's instructions. For MBNL2, PCR amplification was performed with primers 5′-[…]-3′ (SEQ ID NO:1) and 5′-[…]-3′ (SEQ ID NO:2). SERCA1 was amplified with primers 5′-[…]-3′ (SEQ ID NO:3) and 5′-[…]-3′ (SEQ ID NO:4). For TNNT2 (cardiac Troponin T), PCR was carried out with primers 5′-[…]-3′ (SEQ ID NO:5) and 5′-[…]-3′ (SEQ ID NO:6). The alternative splicing of the hnRNPA2/B1 transcript was detected with the primers 5′-[…]-3′ (SEQ ID NO:7) and 5′-[…]-3′ (SEQ ID NO:8). PCR was performed with Taq using standard conditions but the number of amplification cycles was optimized to be in the quantitative range for each gene. The products of PCR amplification were resolved on 3.5% agarose gels containing Gelred™ (Biotium) and images were acquired and quantified with the ChemiDoc™ MP imaging system (Bio-Rad). […]
(In general: A western blot detects proteins with antibodies after separation by electrophoresis.)

For series [2], the system named is Normal or DM1 myoblasts. The experiment in a line: Cytotoxicity assay (Hoescht 33342 / propidium iodide, High Content Screening microscope). The following applies: for cellular toxicity: 7 days (FIG. 10). The method, then: The cellular toxicity of compounds 15 and 32, and their analogs was also measured using a validated cytotoxicity assay. Normal or DM1 myoblasts were treated with 20 μM of compound or DMSO. The ratio of viable cells was measured with a High Content Screening microscope in live cells treated with Hoescht 33342 (labels all cells) and propidium iodide (labels dead cells). The total number of cells was counted and the number of dead cells was subtracted to obtain the number of viable cells, which is presented as a ratio (drug-treated versus DMSO-treated cells). The percentage of dead cells was also measured using propidium iodide.
The cellular toxicity of the compounds was also measured in a dose-response assay. In this assay, normal (M908) and patient (DM1) myoblasts were treated for 7 days with compound 32 or 196 at concentrations varying from 5 to 60 μM. Cell number and cell death was quantified by High Content Screening microscope, as specified above. […] Indeed, the ratio of viable cells at 20 μM of compound 15 is 0.22 (FIG. 10), while for compound 196, an analogue of compound 15, it is above 1 at the same concentration (FIG. 14C).

For series [3], the system named is MBNL2, MBNL1, Sercal and TNNT2 pre-mRNAs. Briefly: Splicing assays on the panel of MBNL2, MBNL1, Sercal and TNNT2 pre-mRNAs in DM1 myoblasts. To be noted: 20 μM, 7 days (FIG. 11). As for the experimental part:
Human myoblasts were obtained from the Myosix institute associated with the Association Frangaise contre les Myopathies (AFM). Five primary myoblast lines were obtained as controls, and one line from a DM1 patient with a 3.8 Kb CTG triplet amplification corresponding to approximately 1250 CTG repeats. The human myoblasts are cultivated in HAM-F10 media (SIGMA N6635) with 15% FBS, 1% chick embryo extract, and 390 ng/ml of dexamethasone. One day before adding compounds, 2×10^5 cells were plated in 100 mm plates (for CUGBP1 western blot or RT-PCR alternative splicing assay) or 2×10^4 cells/well are seeded in 12-well plates containing 12 mm round glass coverslips (for FISH to detect RNA foci). […]
For Western blots, CUGBP1 was detected with the 3B1-3D11 monoclonal antibody (mAb) (SIGMA C5112) and GAPDH was detected with the 6C5 mAb (Millipore MAB374). The enhanced chemiluminescence signal (ECL) was acquired and quantified with the ChemiDoc™ MP imaging system (Bio-Rad). […] The alternative splicing of the hnRNPA2/B1 transcript was detected with the primers 5′-[…]-3′ (SEQ ID NO:7) and 5′-[…]-3′ (SEQ ID NO:8). PCR was performed with Taq using standard conditions but the number of amplification cycles was optimized to be in the quantitative range for each gene. […]

On to `CCCc1c(C(=O)N2CCC(c3ccccc3OC)CC2)cnn1-c1ccccc1` [Compound 43], for which the “reduction of CUGBP1 levels” value in series [1] is listed as 45%. Turning to `CCCN(CCC)S(=O)(=O)c1ccc(NC(=O)c2cnn(-c3ccccc3)c2C)cc1` [Compound 196, N-(4-(N,N-Dipropylsulfamoyl)phenyl)-5-methyl-1-phenyl-1H-pyrazole-4-carboxamide], the “ratio of viable cells (drug-treated versus DMSO-treated)” value in series [2] (20 μM, 7 days (FIG. 10, FIG. 14C)) was “above 1”. In addition, the “main phenotype at higher concentrations” value in series [2] (normal (M908) and DM1 myoblasts, 7 days, 5 to 60 μM) is “cytostatic effect”. The “cytotoxicity in dose-response assay” value in series [2] (normal (M908) and DM1 myoblasts, 7 days, concentration of 20 μM and below (FIGS. 14A-D)) is recorded as “little cytotoxicity”. Further, the “correction of mis-splicing of all the pre-mRNAs tested” value in series [3] is listed as “significantly corrects mis-splicing of all the pre-mRNAs tested”. As for `CCC(C(=O)Nc1ccc(S(=O)(=O)NC23CC4CC(CC(C4)C2)C3)cc1)c1ccccc1` (stereo not shown) [Compound 31], the cellular toxicity result in series [2] (20 μM) is listed as “exhibits cellular toxicity; also recorded: some toxicity”. Take `Cc1c(C(=O)N(Cc2ccccc2)Cc2cccs2)cnn1-c1ccc(Cl)cc1` [Compound 46]: in series [2] (20 μM), the cellular toxicity result is reported as “little toxicity”.
